Assay results taken from paper PMC11249646, “Small-Molecule Disruptors of the Interaction between Calcium- and Integrin-Binding Protein 1 and Integrin αIIbβ3 as Novel Antiplatelet Agents” (ACS Pharmacology & Translational Science, 2024).
Where two headings read alike, the source gives them in different places.

Target: T1, CIB1 and αIIb interaction (CIB1-GST : F-αIIb peptide) (Homo sapiens, UniProt Q99828)
T1 construct: made in house; host or cells: BL-21 plus RIL cells (E. coli)
T1 sequence (Q99828 1-191): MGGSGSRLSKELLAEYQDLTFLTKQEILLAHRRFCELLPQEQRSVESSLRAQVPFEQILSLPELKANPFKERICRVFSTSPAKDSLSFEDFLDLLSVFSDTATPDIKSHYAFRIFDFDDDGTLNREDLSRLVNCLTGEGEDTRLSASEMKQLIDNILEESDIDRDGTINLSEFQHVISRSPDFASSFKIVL
Experiment: FP assay, 1536-well qHTS format (primary and confirmatory screen)
Format: binding
Details: for Efficacy (%): negative = inhibition; for Curve Class: negative sign = inhibitory curve; for IC50: read-out: IC50

[1] = qHTS primary screen hits, Table S2
[2] = qHTS primary screen hits, Table S2, several classes where COUNT > 1
[3] = qHTS primary screen of LOPAC/NPACT libraries

Structure (SMILES)	Efficacy (%) [1]	Curve Class [2]	IC50 [1]	Curve Class [3]	IC50 [3]	also measured
COc1cccc2nc3c(C(=O)NCCN(C)C)cccc3cc12.O=C(O)C(F)(F)F [NCGC00371843-01]	-37%	-2.4	50.1 µM			
CN1CCN(c2ncc3nc(-c4cn(C)c5ccccc45)c(=O)n(Cc4cccs4)c3n2)CC1.O=C(O)C(F)(F)F [NCGC00012779-02]	-27%	-2.4	50.1 µM			
O=S(=O)(Nc1cc(O)cc2cccnc12)c1ccc(Cl)s1 [NCGC00161701-01]	-37%	-2.4	50.1 µM			
Cl.O=c1c2ccccc2nc2sc(Nc3cccc(N4CCNCC4)c3)nn12 [NCGC00187809-01]	-32%	-2.4	44.7 µM			
Cc1ccc(N)cc1O [NCGC00090702-02]	-38%		126 µM			Curve Class [1]: -2.2
CC[C@]1(O)CC[C@H]2[C@@H]3CCC4=CCCC[C@@H]4[C@H]3CC[C@@]21C [NCGC00167514-02]	-100%	-1.1	31.6 µM			
Fc1ccc(C(c2ccc(F)cc2)N2CCN(C/C=C/c3ccccc3)CC2)cc1 [NCGC00018102-06]	-167%		19.2 µM			Curve Class [1]: -2.1
Cc1sc2c(c1C)C(c1ccc(Cl)cc1)=N[C@@H](CC(=O)Nc1ccc(OCCOCCOCCOCCNc3cccc4c3C(=O)N(C3CCC(=O)NC3=O)C4=O)cc1)c1nnc(C)n1-2 (stereo partly shown) [NCGC00483927-01]				-2.4	22.4 µM	Efficacy (%) [3]: -26%
COc1cc(NS(=O)(=O)c2ccc([N+](=O)[O-])cc2)c2ncccc2c1 [NCGC00161705-01]	-40%	-2.4	56.2 µM			
CN(C)c1ccc(C(=C2C=CC(=[N+](C)C)C=C2)c2ccccc2)cc1.CN(C)c1ccc(C(=C2C=CC(=[N+](C)C)C=C2)c2ccccc2)cc1.O=C(O)C(=O)O.O=C([O-])C(=O)O.O=C([O-])C(=O)O [NCGC00013058-02]	-53%	-3	100 µM			
CC(=O)Nc1sc2c(c1-c1nc3ccccc3s1)CCN(C1COC1)C2.O=C(O)C(F)(F)F [NCGC00241066-01]	-83%	-1.2	14.1 µM			
COc1ccc(OC)c(-n2c3c(cc(-c4nnn(-c5ccc(Cl)cc5)n4)c2=O)C(=O)CC(C)(C)C3)c1.O=C(O)C(F)(F)F [NCGC00347300-01]	-41%		89.1 µM			Curve Class [1]: -3
OCC1O[C@H]([S-])[C@H](O)[C@@H](O)[C@@H]1O.[Au+] (stereo partly shown) [NCGC00162223-02]				-3	89.1 µM	Efficacy (%) [3]: -26%
N#C/C(=C1\Nc2ccccc2S1)c1ccnc(NCCc2cccnc2)n1 [NCGC00387772-02]				-1.4	5.6 µM	Efficacy (%) [3]: -26%
Cc1ccc(S(=O)(=O)Nc2cnccc2C(=O)Nc2cccc3ccccc23)cc1.O=C(O)C(F)(F)F [NCGC00343900-01]	-32%		50.1 µM			Curve Class [1]: -2.4
Cc1ccc(NS(=O)(=O)c2cc(Br)cc3c2NC(=O)CC3)cc1Cl.O=C(O)C(F)(F)F [NCGC00242331-01]	-33%		50.1 µM			Curve Class [1]: -2.2
O=C(O)C(F)(F)F.O=c1[nH]c2ccccc2n1C1CCN(CCCC(c2ccc(F)cc2)c2ccc(F)cc2)CC1 [NCGC00015802-18]	-216%		89.1 µM			Curve Class [1]: -3
CN1CCN(CCC(=O)N2c3ccccc3Sc3ccc(C(F)(F)F)cc32)CC1.Cl [NCGC00160483-02]	-60%	-2.4	56.2 µM			
CN1C[C@H](C(=O)N[C@]2(C)O[C@@]3(O)[C@@H]4CCCN4C(=O)[C@H](Cc4ccccc4)N3C2=O)C[C@@H]2c3cccc4[nH]cc(c34)C[C@H]21.CS(=O)(=O)O [NCGC00261042-01]				-2.4	56.2 µM	Efficacy (%) [3]: -32%
Cc1c2c(=O)n(-c3ccccc3)[nH]c2cc(=O)n1CCc1ccccc1.O=C(O)C(F)(F)F [NCGC00248471-01]	-28%	-2.4	50.1 µM			
C=CCNc1oc(-c2ccc(F)cc2)nc1C#N.O=C(O)C(F)(F)F [NCGC00183411-01]	-27%	-2.4	50.1 µM			
O=C(O)c1cc(O)c2cccc(O)c2c1O[C@@H]1O[C@H](CO)[C@@H](O)[C@H](O)[C@H]1O [NCGC00385595-01]				-2.4	39.8 µM	Efficacy (%) [3]: -31%
CC[n+]1c(-c2ccccc2)c2cc(N)ccc2c2ccc(N)cc21.[Br-] [NCGC00091387-08]	-61%	-2.4	56.2 µM			
COc1ccc2[nH]c([S+]([O-])Cc3ncc(C)c(OC)c3C)nc2n1 (stereo not shown) [NCGC00167521-02]						Efficacy (%) (qHTS FP screen hits, Table S2): -34%; IC50 (qHTS FP screen hits, Table S2): 47.4 µM

Structure (SMILES)	Efficacy (%) [1]	Curve Class [2]	IC50 [1]	Curve Class [3]	IC50 [3]	also measured
CN(C)c1ccc(NC(=O)NS(=O)(=O)c2ccc(Cl)cc2)cc1 [NCGC00485899-01]				-2.4	50.1 µM	Efficacy (%) [3]: -32%
C=CCc1ccccc1OCC(O)CN[C@]1(C)CCC[C@H](C(C)(C)NC(=O)CBr)C1 (stereo partly shown) [NCGC00162095-02]				-2.4	56.2 µM	Efficacy (%) [3]: -35%
CC(=O)NC(c1ccco1)c1cc(Cl)c2ccc(N(C)C)nc2c1O (stereo not shown) [NCGC00183714-01]	-39%	-2.2	50.1 µM			
O=C(O)C(F)(F)F.O=C1c2ccccc2NC(c2ccc(-c3cccc([N+](=O)[O-])c3)o2)N1O (stereo not shown) [NCGC00183384-01]	-23%	-2.4	56.2 µM			
CC(=O)NC(c1ccco1)c1cc(Br)c2cccnc2c1O.O=C(O)C(F)(F)F (stereo not shown) [NCGC00183684-06]	-40%	-2.2	50.1 µM			
CCC(=O)NC(c1cccs1)c1cc(Cl)c2cccnc2c1O (stereo not shown) [NCGC00188867-01]	-29%	-2.4	44.7 µM			
Cc1cc(NS(=O)(=O)c2ccc(Nc3nc(-c4ccc(C)c(C)c4)cs3)cc2)no1.O=C(O)C(F)(F)F [NCGC00249742-01]	-32%	-2.4	44.7 µM			
O=C(Nc1ccc(Oc2ccc(Cl)cc2)c(Cl)c1)c1cc(I)cc(I)c1O [NCGC00160556-02]	-27%		89.1 µM			Curve Class [1]: -2.4
CC1=C(C(=O)OC2CCCCC2)C(c2ccc([N+](=O)[O-])cc2)C2=C(CC(C)(C)CC2=O)N1 (stereo not shown) [NCGC00370923-11]				-2.1	17.8 µM	Efficacy (%) [3]: -104%
COc1ccc(Nc2cc(C)nc(-n3nc(C)cc3C)n2)cc1Cl.O=C(O)C(F)(F)F [NCGC00134126-02]	-30%	-2.4	50.1 µM			
N#Cc1cc2nc([O-])c([O-])nc2cc1[N+](=O)[O-].[Na+].[Na+] [NCGC00015198-04]	-48%		35.5 µM			Curve Class [1]: -2.2
COc1cc2c(cc1OC)CN(CCc1ccc(NC(=O)c3cc(OC)c(OC)cc3NC(=O)c3cnc4ccccc4c3)cc1)CC2 [NCGC00346448-01]	-30%	-2.4	42.9 µM			
COc1cc2c(cc1OC)-c1[nH]nc(Nc3cccc(F)c3)c1C2 [NCGC00343986-02]				-2.4	63.1 µM	Efficacy (%) [3]: -25%
CCc1nnc(Nc2ncnc3scc(-c4cccc(S(C)(=O)=O)c4)c23)s1.O=C(O)C(F)(F)F [NCGC00188733-01]	-31%	-2.2	50.1 µM			
O=C(O)CC1(O)C(=O)Nc2ccccc21 (stereo not shown) [NCGC00385842-01]				-2.4	56.2 µM	Efficacy (%) [3]: -28%
O=c1[nH]c2cc(C(F)(F)F)ccc2n1-c1cc(C(F)(F)F)ccc1O [NCGC00015720-07]				-2.4	44.7 µM	Efficacy (%) [3]: -30%
COc1ccc(Cl)cc1C(=O)NCCc1ccc(S(=O)(=O)NC(=O)NC2CCCCC2)cc1 [NCGC00015467-16]				-2.4	31.6 µM	Efficacy (%) [3]: -14%
C=CC(=O)Nc1ccc(CN2C(=O)N(c3cc(OC)cc(OC)c3)Cc3cnc(Nc4ccc(N5CCN(C)CC5)cc4)nc32)cc1 [NCGC00484066-01]				-2.4	56.2 µM	Efficacy (%) [3]: -26%
Oc1cc(O)cc(/C=C/c2ccc(O)c(O)c2)c1 [NCGC00094226-07]				-1.2	3.2 µM	
Cc1ccc(Cl)c(Nc2ccccc2C(=O)O)c1Cl [NCGC00023217-06]	-57%		44.7 µM			Curve Class [1]: -2.2
O.O=C(O)[C@@H]1[C@H]2C[C@H]3c4[nH]c5ccccc5c4CCN3C[C@@H]2CC[C@@H]1O [NCGC00178432-05]	-32%	-2.4	44.7 µM			
Nc1nccn2c(C3CCC(C(=O)O)CC3)nc(-c3cc4cccc(Cl)c4[nH]3)c12 (stereo not shown) [NCGC00390408-01]				-2.4	50.1 µM	Efficacy (%) [3]: -33%
CC(=O)NC(c1ccco1)c1cc(F)c2cccnc2c1O (stereo not shown) [NCGC00183702-01]	-24%		79.4 µM			Curve Class [1]: -2.4
